Molecular target: T1, cMET receptor tyrosine kinase (GST-cMET (969-1390)) (Homo sapiens, UniProt P08581)
T1 construct: made in house
Test: EPK cMET profiling assay (LanthaScreen TR-FRET antibody based kinase phosphorylation assay)
Assay type: biochemical
Conditions: purified recombinant GST-cMET (969-1390), 2 μM ATP, 50 nM Fluorescein-PolyEAY, 60 minutes at room temperature; read-out: c-Met IC50
Method in brief: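 Compounds tested at eight final concentrations from 10 down to 0.003 µM against affinity-purified GST-cMET (969-1390, 0.3 nM) with 2 µM ATP and 50 nM fluorescein-PolyEAY in Tris buffer with MgCl2 and MnCl2, 1 h at room temperature. After EDTA stop, phosphoproduct detected by LanthaScreen TR-FRET with Tb-PY20 antibody, end-point measurement.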

T1 sequence (P08581 969-1390): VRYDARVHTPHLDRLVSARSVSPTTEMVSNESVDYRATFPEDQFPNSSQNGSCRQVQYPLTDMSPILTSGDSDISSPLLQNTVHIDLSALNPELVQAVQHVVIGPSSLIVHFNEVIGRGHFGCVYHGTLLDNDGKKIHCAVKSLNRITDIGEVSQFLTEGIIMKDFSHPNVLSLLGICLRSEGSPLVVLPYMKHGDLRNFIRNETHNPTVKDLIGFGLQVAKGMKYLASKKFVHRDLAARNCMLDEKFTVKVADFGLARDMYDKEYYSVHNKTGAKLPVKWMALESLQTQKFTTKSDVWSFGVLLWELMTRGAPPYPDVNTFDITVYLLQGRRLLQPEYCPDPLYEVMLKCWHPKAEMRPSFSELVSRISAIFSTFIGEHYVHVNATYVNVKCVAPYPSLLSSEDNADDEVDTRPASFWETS

| Structure (SMILES) | IC50 [nM] |
| --- | --- |
| OCCCc1ccc(-c2ccc3ncc(Cc4ccc5ncccc5c4)n3n2)cc1 [Example 64, 3-[4-(3-Quinolin-6-ylmethyl-imidazo[1,2-b]pyridazin-6-yl)-phenyl]-propan-1-ol] | 79 |
| Cn1cc(-c2ccc3ncc(Cc4ccc5nc(F)cn5c4)n3n2)cn1 [Example 288, 3-(2-Fluoro-imidazo[1,2-a]pyridin-6-ylmethyl)-6-(1-methyl-1H-pyrazol-4-yl)-imidazo[1,2-b]pyridazine] | 850 |
| CC(=O)c1cccc(-c2ccc3ncc(Cc4ccc5ncccc5c4)n3n2)c1 [Example 55, 1-[3-(3-Quinolin-6-ylmethyl-imidazo[1,2-b]pyridazin-6-yl)-phenyl]-ethanone] | 31 |
| c1cnc2ccc(Cc3cnc4ccc(-c5cncc6ccccc56)nn34)cc2c1 [Example 42, 6-(6-Isoquinolin-4-yl-imidazo[1,2-b]pyridazin-3-ylmethyl)-quinoline] | 450 |
| COc1ccc(-c2ccc3ncc(Cc4ccc5ncccc5c4)n3n2)cn1 [Example 62, 6-[6-(6-Methoxy-pyridin-3-yl)-imidazo[1,2-b]pyridazin-3-ylmethyl]-quinoline] | 39 |
| Cn1cc(-c2ccc3ncc(Cc4ccc5ncc(C(O)CO)n5c4)n3n2)cn1 (stereo not drawn) [Example 304, 1-{6-[6-(1-Methyl-1H-pyrazol-4-yl)-imidazo[1,2-b]pyridazin-3-ylmethyl]-imidazo[1,2-a]pyridin-3-yl}-ethane-1,2-diol] | 330 |
| CC(c1ccc2ncccc2c1Cl)c1cnc2ccc(-c3cnn(C4CCN(C)CC4)c3)nn12 (stereo not drawn) [Example 224, 5-Chloro-6-(1-{6-[1-(1-methyl-piperidin-4-yl)-1H-pyrazol-4-yl]-imidazo[1,2-b]pyridazin-3-yl}-ethyl)-quinoline] | 28 |
| CN(C)CCCNc1ccc2ncc(Cc3ccc4ncccc4c3)n2n1 [Example 101, N,N-Dimethyl-N′-(3-quinolin-6-ylmethyl-imidazo[1,2-b]pyridazin-6-yl)-propane-1,3-diamine] | 130 |
| Oc1ccc(-c2ccc3ncc(Cc4ccc5ncccc5c4)n3n2)cn1 [Example 73, 5-(3-Quinolin-6-ylmethyl-imidazo[1,2-b]pyridazin-6-yl)-pyridin-2-ol] | 48 |
| Cn1cc(-c2ccc3ncc(Cc4cc5cnn(C)c5cc4F)n3n2)cn1 [Example 277, 3-(6-Fluoro-1-methyl-1H-indazol-5-ylmethyl)-6-(1-methyl-1H-pyrazol-4-yl)-imidazo[1,2-b]pyridazine] | 61 |
| c1cnc2ccc(Cc3cnc4ccc(Nc5ccc(CN6CCCCC6)cc5)nn34)cc2c1 [Example 126, (4-Piperidin-1-ylmethyl-phenyl)-(3-quinolin-6-ylmethyl-imidazo[1,2-b]pyridazin-6-yl)-amine] | 16 |
| C[C@@H](c1ccc2ncn(C)c2c1)c1cnc2ccc(-c3cnn(CCO)c3)nn12 [Example 187, 2-(4-{3-[(S)-1-(3-Methyl-3H-benzoimidazol-5-yl)-ethyl]-imidazo[1,2-b]pyridazin-6-yl}-pyrazol-1-yl)-ethanol] | 19 |
| Fc1ccc(-c2ccc3ncc(Cc4ccc5ncccc5c4)n3n2)cc1 [Example 25, 6-[6-(4-Fluoro-phenyl)-imidazo[1,2-b]pyridazin-3-ylmethyl]-quinoline] | 48 |
| Cn1cc(-c2ccc3ncc(C(O)c4ccc5ncccc5c4)n3n2)cn1 (racemic) [Example 1, (rac)-[6-(1-Methyl-1H-pyrazol-4-yl)-imidazo[1,2-b]pyridazin-3-yl]-quinolin-6-yl-methanol] | 140 |
| CC(=O)c1ccc(-c2ccc3ncc(Cc4ccc5ncccc5c4)n3n2)cc1 [Example 21, 1-[4-(3-Quinolin-6-ylmethyl-imidazo[1,2-b]pyridazin-6-yl)-phenyl]-ethanone] | 27.5 |
| Clc1ccccc1Nc1ccc2ncc(Cc3ccc4ncccc4c3)n2n1 [Example 128, (2-Chloro-phenyl)-(3-quinolin-6-ylmethyl-imidazo[1,2-b]pyridazin-6-yl)-amine] | 29 |
| c1cnc2ccc(Cc3cnc4ccc(-c5cc6ccccc6s5)nn34)cc2c1 [Example 38, 6-(6-Benzo[b]thiophen-2-yl-imidazo[1,2-b]pyridazin-3-ylmethyl)-quinoline] | 39 |
| CC(c1ccc2ncccc2c1)c1cnc2ccc(-c3cnn(CCO)c3)nn12 (racemic) [Example 177, (rac)-2-{4-[3-(1-Quinolin-6-yl-ethyl)-imidazo[1,2-b]pyridazin-6-yl]-pyrazol-1-yl}-ethanol] | 20 |
| Brc1ccc(-c2ccc3ncc(Cc4ccc5ncccc5c4)n3n2)cc1 [Example 19, 6-[6-(4-Bromo-phenyl)-imidazo[1,2-b]pyridazin-3-ylmethyl]-quinoline] | 215 |
| Cn1cc(-c2ccc3ncc(Cc4ccc5ncc(C=O)n5c4)n3n2)cn1 [Example 297, 6-[6-(1-Methyl-1H-pyrazol-4-yl)-imidazo[1,2-b]pyridazin-3-ylmethyl]-imidazo[1,2-a]pyridine-3-carbaldehyde] | 130 |
| CN(C)C1CCN(c2ccc3ncc(Cc4ccc5ncccc5c4)n3n2)CC1 [Example 86, Dimethyl-[1-(3-quinolin-6-ylmethyl-imidazo[1,2-b]pyridazin-6-yl)-piperidin-4-yl]-amine] | 160 |
| Cn1cc(-c2ccc3ncc(Cc4ccc(O)cc4)n3n2)cn1 [Example 5, 4-[6-(1-Methyl-1H-pyrazol-4-yl)-imidazo[1,2-b]pyridazin-3-ylmethyl]-phenol] | 53 |
| Cn1cc(-c2ccc3ncc(Cc4c(F)cc5ncccc5c4F)n3n2)cn1 [Example 170, 5,7-Difluoro-6-[6-(1-methyl-1H-pyrazol-4-yl)-imidazo[1,2-b]pyridazin-3-ylmethyl]-quinoline] | 6 |
| C[C@@H](c1ccc2ncccc2c1)c1cnc2ccc(-c3cn[nH]c3)nn12 [Example 240, 6-{(S)-1-[6-(1H-Pyrazol-4-yl)-imidazo[1,2-b]pyridazin-3-yl]-ethyl}-quinoline] | 8.4 |
| CC(c1ccc2ncc(Br)n2c1)c1cnc2ccc(-c3cnn(C)c3)nn12 (racemic) [Example 309, (rac)-3-[1-(3-Bromo-imidazo[1,2-a]pyridin-6-yl)-ethyl]-6-(1-methyl-1H-pyrazol-4-yl)imidazo[1,2-b]pyridazine] | 16 |
| OCCN1CCC(n2cc(-c3ccc4ncc(Cc5cc6cccnc6cc5F)n4n3)cn2)CC1 [Example 147, 2-(4-{4-[3-(7-Fluoro-quinolin-6-ylmethyl)-imidazo[1,2-b]pyridazin-6-yl]-pyrazol-1-yl}-piperidin-1-yl)-ethanol] | 82 |
| CNC(=O)c1ccc(-c2ccc3ncc(Cc4ccc5ncccc5c4)n3n2)cc1Cl [Example 71, 2-Chloro-N-methyl-4-(3-quinolin-6-ylmethyl-imidazo[1,2-b]pyridazin-6-yl)-benzamide] | 24 |
| Clc1cc(-c2ccc3ncc(Cc4ccc5ncccc5c4)n3n2)ccn1 [Example 49, 6-[6-(2-Chloro-pyridin-4-yl)-imidazo[1,2-b]pyridazin-3-ylmethyl]-quinoline] | 23 |
| O=S1(=O)CCC(Nc2ccc3ncc(Cc4ccc5ncccc5c4)n3n2)C1 (stereo not drawn) [Example 99, 1,1-Dioxo-tetrahydro-1lambda*6*-thiophen-3-yl)-(3-quinolin-6-ylmethyl-imidazo[1,2-b]pyridazin-6-yl)-amine] | 120 |
| Clc1cccc(Nc2ccc3ncc(Cc4ccc5ncccc5c4)n3n2)c1Cl [Example 136, (2,3-Dichloro-phenyl)-(3-quinolin-6-ylmethyl-imidazo[1,2-b]pyridazin-6-yl)-amine] | 350 |
